Experimental data: patent US7820683B2, “4-(1H-indazol-5-yl-amino)-quinazoline compounds as erbB receptor tyrosine kinase inhibitors for the treatment of cancer” (AstraZeneca AB, priority 2005, dated 2010)

Columns and labels:
erbB2 tyrosine kinase = target: T1, erbB2 tyrosine kinase (Homo sapiens, UniProt P04626); test: Protein tyrosine kinase phosphorylation assay, Test (a), erbB2; assay type: biochemical; details: recombinant intracellular fragment, ATP at Km; read-out: IC50 Test (a): Inhibition of erbB2 tyrosine kinase protein phosphorylation
T1 construct: Recombinant intracellular fragments of EGFR, erbB2 and erbB4; made in house; host or cells: baculovirus/Sf21 insect cells (cleared lysate used)
Protocol: (§1) This test measures the ability of a test compound to inhibit the phosphorylation of a tyrosine containing polypeptide substrate by EGFR, erbB2 and erbB4 tyrosine kinase enzyme.
(§2) Recombinant intracellular fragments of EGFR, erbB2 and erbB4 (accession numbers X00588, X03363 and L07868 respectively) were cloned and expressed in the baculovirus/Sf21 system. Lysates were prepared from these cells by treatment with ice-cold lysis buffer (20 mM N-2-hydroxyethylpiperizine-N′-2-ethanesulfonic acid (HEPES) pH7.5, 150 mM NaCl, 10% glycerol, 1% Triton X-100, 1.5 mM MgCl2, 1 mM ethylene glycol-bis(β-aminoethyl ether) N′,N′,N′,N′-tetraacetic acid (EGTA), plus protease inhibitors and then cleared by centrifugation.
(§3) Constitutive kinase activity of these recombinant proteins was determined by their ability to phosphorylate a synthetic peptide (made up of a random co-polymer of Glutamic Acid, Alanine and Tyrosine in the ratio of 6:3:1). […]
(§4) The immobilised phospho-peptide product of the reaction was detected by immunological methods. […]
(§5) Kinase inhibition for a given compound was expressed as an IC50 value. […] The range of phosphorylation was calculated from the positive (vehicle plus ATP) and negative (vehicle minus ATP) control values.

EGFR tyrosine kinase = target: T2, EGFR tyrosine kinase (Homo sapiens, UniProt P00533); test: Protein tyrosine kinase phosphorylation assay, Test (a), EGFR; assay type: biochemical; details: recombinant intracellular fragment, ATP at Km; read-out: IC50 Test (a): Inhibition of EGFR tyrosine kinase protein phosphorylation
T2 construct: Recombinant intracellular fragments of EGFR, erbB2 and erbB4; made in house; host or cells: baculovirus/Sf21 insect cells (cleared lysate used)
Protocol: as §1, §2, §3, §4, §5

[1] = system: phosphorylation of erbB2 in a MCF7 derived cell line (Clone 24 cells); test: Clone 24 phospho-erbB2 cell assay, Test (c); assay type: cell-based; details: Homo sapiens; MCF7 derived Clone 24 cells, 4 hours; read-out: IC50 Test (c): Inhibition of erbB2 tyrosine kinase protein phosphorylation
Protocol: This immunofluorescence end point assay measures the ability of a test compound to inhibit the phosphorylation of erbB2 in a MCF7 (breast carcinoma) derived cell line which was generated by transfecting MCF7 cells with the full length erbB2 gene using standard methods to give a cell line that overexpresses full length wild type erbB2 protein (hereinafter ‘Clone 24’ cells).
Clone 24 cells were cultured in Growth Medium (phenol red free Dulbecco's modified Eagle's medium (DMEM) containing 10% foetal bovine serum, 2 mM glutamine and 1.2 mg/ml G418) in a 7.5% CO2 air incubator at 37° C. […] Cell density was measured using a haemocytometer and viability was calculated using Trypan Blue solution before being further diluted in Growth Medium and seeded at a density of 1×10^4 cells per well (in 100 ul) into clear bottomed 96 well plates (Packard, No. 6005182). […]
Immunostaining was performed at room temperature. […] Plates were analysed within six hours of completing the immunostaining.
The Fluorescence signal is each well was measured using an Acumen Explorer Instrument (Acumen Bioscience Ltd.), a plate reader that can be used to rapidly quantitate features of images generated by laser-scanning. […]

T1 sequence (P04626 676-1255 limits assumed): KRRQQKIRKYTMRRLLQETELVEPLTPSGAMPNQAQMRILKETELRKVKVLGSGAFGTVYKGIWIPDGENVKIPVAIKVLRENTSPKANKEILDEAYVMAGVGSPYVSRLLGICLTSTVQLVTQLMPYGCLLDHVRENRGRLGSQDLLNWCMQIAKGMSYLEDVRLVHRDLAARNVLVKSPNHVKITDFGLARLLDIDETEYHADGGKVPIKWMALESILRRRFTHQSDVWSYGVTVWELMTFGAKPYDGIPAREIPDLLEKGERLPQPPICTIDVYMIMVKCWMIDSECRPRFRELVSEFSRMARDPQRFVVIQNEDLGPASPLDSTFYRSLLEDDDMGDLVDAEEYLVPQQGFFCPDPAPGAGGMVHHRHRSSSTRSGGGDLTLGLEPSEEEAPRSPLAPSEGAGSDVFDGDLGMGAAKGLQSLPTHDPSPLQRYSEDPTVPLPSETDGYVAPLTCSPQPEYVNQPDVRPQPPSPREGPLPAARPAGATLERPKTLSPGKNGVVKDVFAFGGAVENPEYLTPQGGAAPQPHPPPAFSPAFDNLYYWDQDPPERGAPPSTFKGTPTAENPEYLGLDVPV
T2 sequence (P00533 669-1210 limits assumed): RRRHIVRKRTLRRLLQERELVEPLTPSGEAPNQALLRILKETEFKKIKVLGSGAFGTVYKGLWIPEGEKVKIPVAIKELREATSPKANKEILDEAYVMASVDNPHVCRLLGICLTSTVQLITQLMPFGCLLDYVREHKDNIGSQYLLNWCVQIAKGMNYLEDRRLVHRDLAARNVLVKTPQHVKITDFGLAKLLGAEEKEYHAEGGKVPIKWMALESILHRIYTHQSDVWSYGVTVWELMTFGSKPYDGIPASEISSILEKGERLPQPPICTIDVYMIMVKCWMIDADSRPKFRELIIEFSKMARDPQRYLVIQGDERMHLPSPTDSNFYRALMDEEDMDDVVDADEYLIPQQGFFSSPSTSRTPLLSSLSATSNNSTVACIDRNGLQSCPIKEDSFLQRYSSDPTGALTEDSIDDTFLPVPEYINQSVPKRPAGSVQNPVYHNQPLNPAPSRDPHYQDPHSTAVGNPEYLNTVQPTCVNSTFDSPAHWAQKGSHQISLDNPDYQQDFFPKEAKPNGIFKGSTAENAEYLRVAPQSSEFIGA

| IC50 (erbB2 tyrosine kinase) [µM] | IC50 (EGFR tyrosine kinase) [µM] | IC50 [1] [µM] | Compound |
| --- | --- | --- | --- |
| 0.012 | 0.21 | – | C[C@@H](Oc1cccc2ncnc(Nc3ccc4c(cnn4Cc4ccccn4)c3)c12)C(=O)N(C)CCO [Example 1, (2R)—N-(2-Hydroxyethyl)-N-methyl-2-[(4-{[1-(pyridin-2-ylmethyl)-1H-indazol-5-yl]amino}quinazolin-5-yl)oxy]propanamide] |
| – | – | 0.035 | C[C@@H](Oc1cccc2ncnc(Nc3ccc4c(cnn4Cc4ccccn4)c3)c12)C(=O)N1CCOCC1 [Example 2, 5-[(1R)-1-Methyl-2-morpholin-4-yl-2-oxoethoxy]-N-[1-(pyridin-2-ylmethyl)-1H-indazol-5-yl]quinazolin-4-amine] |
